Measured values published in PubChem BioAssay (NCI).
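All cell lines were grown in 96-well plates and treated with compound for 48 hours. Abbreviation: GI50, concentration required for 50% inhibition of growth. TGI: concentration producing complete growth inhibition.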

Experiments:
Assay in all cases: NCI-60 cell line screen, 48 h
[1] = system: NCI-H460 lung
[2] = system: UO-31 renal
[3] = system: CAKI-1 renal
[4] = system: MDA-MB-468 breast
[5] = system: OVCAR-5 ovarian
[6] = system: HL-60(TB) leukemia
[7] = system: K-562 leukemia
[8] = system: HCT-116 colon
[9] = system: BT-549 breast
[10] = system: RXF 393 renal
[11] = system: HT29 colon
[12] = system: SW-620 colon
[13] = system: CCRF-CEM leukemia
[14] = system: UACC-62 melanoma
[15] = system: SF-539 CNS
[16] = system: COLO 205 colon
[17] = system: DU-145 prostate
[18] = system: SK-MEL-28 melanoma
[19] = system: SK-MEL-2 melanoma
[20] = system: MDA-MB-435
[21] = system: U251 CNS
[22] = system: OVCAR-8 ovarian
[23] = system: SK-OV-3 ovarian
[24] = system: SNB-75 CNS
[25] = system: SR leukemia
[26] = system: HCT-15 colon
[27] = system: MCF7 breast
[28] = system: A549 NSCLC
[29] = system: MOLT-4 leukemia
[30] = system: HS 578T breast
[31] = system: NCI-H23 lung
[32] = system: SNB-19 CNS
[33] = system: EKVX NSCLC
[34] = system: RPMI-8226 leukemia
[35] = system: TK-10 renal
[36] = system: HOP-92 NSCLC
[37] = system: T-47D breast
[38] = system: HCC-2998 colon
[39] = system: NCI-H522 lung
[40] = system: SN12C renal
[41] = system: OVCAR-4 ovarian
[42] = system: KM12 colon
[43] = system: IGROV1 ovarian
[44] = system: MDA-MB-231 breast
[45] = system: UACC-257 melanoma
[46] = system: M14 melanoma
[47] = system: 786-0 renal
[48] = system: ACHN renal
[49] = system: OVCAR-3 ovarian
[50] = system: LOX IMVI melanoma
[51] = system: MALME-3M melanoma
[52] = system: A498 renal
[53] = system: HOP-62 NSCLC
[54] = system: SF-295 CNS
[55] = system: SK-MEL-5 melanoma
[56] = system: PC-3 prostate
[57] = system: NCI-H226 lung
[58] = system: SF-268 CNS

COc1ccccc1NC(=O)c1ccc(NC(=O)CCl)s1
GI50 [1]: 11 µM
TGI [1]: 35.4 µM
GI50 [2]: 13.7 µM
TGI [2]: 27.3 µM
GI50 [3]: 12.8 µM
TGI [3]: 29 µM
GI50 [4]: 12.4 µM
TGI [4]: 27.7 µM
GI50 [5]: 23.6 µM
TGI [5]: 49.2 µM
GI50 [6]: 4.76 µM
TGI [6]: 35.6 µM
GI50 [7]: 2.65 µM
TGI [7]: > 100 µM
GI50 [8]: 5.52 µM
TGI [8]: 30.5 µM
GI50 [9]: 12.2 µM
TGI [9]: 26.8 µM
GI50 [10]: 11.6 µM
TGI [10]: 25.1 µM
GI50 [11]: 8.76 µM
TGI [11]: 22.9 µM
GI50 [12]: 4.27 µM
TGI [12]: 21.7 µM
GI50 [13]: 3.62 µM
TGI [13]: 88.1 µM
GI50 [14]: 16.1 µM
TGI [14]: 31 µM
GI50 [15]: 16.2 µM
TGI [15]: 30.8 µM
GI50 [16]: 15.1 µM
TGI [16]: 35.5 µM
GI50 [17]: 24.7 µM
TGI [17]: 85 µM
GI50 [18]: 21.9 µM
TGI [18]: 54.1 µM
GI50 [19]: 13.9 µM
TGI [19]: 29.2 µM
GI50 [20]: 15.7 µM
TGI [20]: 32.5 µM
GI50 [21]: 13.9 µM
TGI [21]: 28.1 µM
GI50 [22]: 12.7 µM
TGI [22]: 33.8 µM
GI50 [23]: 29.5 µM
TGI [23]: 74.9 µM
GI50 [24]: 11.5 µM
TGI [24]: 83.2 µM
GI50 [25]: 3.11 µM
TGI [25]: > 100 µM
GI50 [26]: 4.29 µM
TGI [26]: 29 µM
GI50 [27]: 5.02 µM
TGI [27]: 44 µM
GI50 [28]: 14.7 µM
TGI [28]: 40 µM
GI50 [29]: 4.23 µM
TGI [29]: 40.6 µM
GI50 [30]: 15.1 µM
TGI [30]: 54.4 µM
GI50 [31]: 13.6 µM
TGI [31]: 31.2 µM
GI50 [32]: 32.4 µM
TGI [32]: > 100 µM
GI50 [33]: 18 µM
TGI [33]: 67.7 µM
GI50 [34]: 13.6 µM
TGI [34]: 38.6 µM
GI50 [35]: 20.4 µM
TGI [35]: 73.6 µM
GI50 [36]: 16.5 µM
TGI [36]: 34.7 µM
GI50 [37]: 42.3 µM
TGI [37]: > 100 µM
GI50 [38]: 28.6 µM
TGI [38]: > 100 µM
GI50 [39]: 10.6 µM
TGI [39]: 24 µM
GI50 [40]: 13.4 µM
TGI [40]: 36 µM
GI50 [41]: 21 µM
TGI [41]: 68.7 µM
GI50 [42]: 14.7 µM
TGI [42]: 38.8 µM
GI50 [43]: 15.6 µM
TGI [43]: 34.9 µM
GI50 [44]: 15.2 µM
TGI [44]: 33.7 µM
GI50 [45]: 24.3 µM
TGI [45]: > 100 µM
GI50 [46]: 13.1 µM
TGI [46]: 28.7 µM
GI50 [47]: 12.3 µM
TGI [47]: 26.1 µM
GI50 [48]: 10.5 µM
TGI [48]: 24.5 µM
GI50 [49]: 13.6 µM
TGI [49]: 29 µM
GI50 [50]: 4.81 µM
TGI [50]: 18.5 µM
GI50 [51]: 15.1 µM
TGI [51]: 30.5 µM
GI50 [52]: 87.4 µM
TGI [52]: > 100 µM
GI50 [53]: 36.4 µM
TGI [53]: > 100 µM
GI50 [54]: 25.9 µM
TGI [54]: > 100 µM
GI50 [55]: 15.3 µM
TGI [55]: 29.4 µM
GI50 [56]: 11.1 µM
TGI [56]: 28.4 µM
GI50 [57]: 14.6 µM
TGI [57]: 32.4 µM
GI50 [58]: 18.8 µM
TGI [58]: 64.2 µM

COc1ccc(NC2=C(I)C(=O)C(C)=C(C)C2=O)cc1
GI50 [1]: 15.7 µM
TGI [1]: 32.8 µM
GI50 [2]: 6.03 µM
TGI [2]: 19.8 µM
GI50 [3]: 3.89 µM
TGI [3]: 22 µM
GI50 [4]: 0.416 µM
TGI [4]: 2.49 µM
GI50 [5]: 11.7 µM
TGI [5]: 25.6 µM
GI50 [6]: 0.341 µM
TGI [6]: 1.54 µM
GI50 [7]: 2.99 µM
TGI [7]: > 100 µM
GI50 [8]: 2.93 µM
TGI [8]: 10.4 µM
GI50 [9]: 12.4 µM
TGI [9]: 25.8 µM
GI50 [10]: 3.6 µM
TGI [10]: 14.8 µM
GI50 [11]: 18.2 µM
TGI [11]: 48.8 µM
GI50 [12]: 11.7 µM
TGI [12]: 29.2 µM
GI50 [13]: 1.36 µM
TGI [13]: 35.4 µM
GI50 [14]: 9.68 µM
TGI [14]: 23.8 µM
GI50 [15]: 2.5 µM
TGI [15]: 7.23 µM
GI50 [16]: 14.8 µM
TGI [16]: 28 µM
GI50 [17]: 16.1 µM
TGI [17]: 30.7 µM
GI50 [18]: 14.3 µM
TGI [18]: 28.9 µM
GI50 [19]: 3.14 µM
TGI [19]: 12.4 µM
GI50 [20]: 1.82 µM
TGI [20]: 3.37 µM
GI50 [21]: 11.5 µM
TGI [21]: 24.7 µM
GI50 [22]: 2.26 µM
TGI [22]: 6.54 µM
GI50 [23]: 18 µM
TGI [23]: 62.9 µM
GI50 [24]: 15.9 µM
TGI [24]: 35.6 µM
GI50 [25]: 1.07 µM
TGI [25]: > 100 µM
GI50 [26]: 13.5 µM
TGI [26]: 27.9 µM
GI50 [27]: 2.71 µM
TGI [27]: 10 µM
GI50 [28]: 16.9 µM
TGI [28]: 39 µM
GI50 [29]: 0.625 µM
TGI [29]: 32.6 µM
GI50 [30]: 14.5 µM
TGI [30]: 50.2 µM
GI50 [31]: 4.11 µM
TGI [31]: 17.6 µM
GI50 [32]: 15.4 µM
TGI [32]: 34.1 µM
GI50 [33]: 4.25 µM
TGI [33]: 16.7 µM
GI50 [34]: 3.08 µM
TGI [34]: 20.2 µM
GI50 [35]: 17 µM
TGI [35]: 37.2 µM
GI50 [36]: 7.46 µM
TGI [36]: 26.2 µM
GI50 [37]: 1.98 µM
TGI [37]: 16.3 µM
GI50 [38]: 16.7 µM
TGI [38]: 33.5 µM
GI50 [39]: 6.54 µM
TGI [39]: 21 µM
GI50 [40]: 4.04 µM
TGI [40]: 15.5 µM
GI50 [41]: 3.98 µM
TGI [41]: 15.2 µM
GI50 [42]: 6.96 µM
TGI [42]: 42 µM
GI50 [43]: 4.37 µM
TGI [43]: 17.3 µM
GI50 [44]: 2.37 µM
TGI [44]: 8.48 µM
GI50 [45]: 2.42 µM
TGI [45]: 8 µM
GI50 [46]: 15 µM
TGI [46]: 28.7 µM
GI50 [47]: 8.56 µM
TGI [47]: 27.4 µM
GI50 [48]: 4.61 µM
TGI [48]: 17.5 µM
GI50 [49]: 2.75 µM
TGI [49]: 9.45 µM
GI50 [50]: 2.37 µM
TGI [50]: 8.8 µM
GI50 [51]: 11.6 µM
TGI [51]: 23.9 µM
GI50 [52]: 24.6 µM
TGI [52]: 68.3 µM
GI50 [53]: 14.9 µM
TGI [53]: 36.6 µM
GI50 [54]: 13.9 µM
TGI [54]: 28.4 µM
GI50 [55]: 4.74 µM
TGI [55]: 18.2 µM
GI50 [56]: 3.42 µM
TGI [56]: > 100 µM
GI50 [57]: 12.5 µM
TGI [57]: 28.9 µM
GI50 [58]: 12.3 µM
TGI [58]: 55.6 µM
